Conditions: mouse, in vivo, po

## Cc1cc(-c2noc(C(F)(F)F)n2)ccc1OCCCc1cc(C(=O)N(C)C)no1 [Compound 8, N,N-dimethyl-5-(3-{2-methyl-4-[5-(trifluoromethyl)-1,2,4-oxadiazol-3-yl]phenoxy}propyl)isoxazole-3-carboxamide]
  Maximum tolerated dose (MTD): at least 100 milligrams per kilogram body weight per day
